The source made the active and inactive calls. For most assays here, no stated cut-off is given here; in the data, actives have a measured Kd and inactives only a lower limit. A value given as a limit tells only on which side of the number the result lay.

Experiment [1] deals with Mitogen-activated protein kinase 8 (Homo sapiens, UniProt P45983).
Experiment [2] addresses T1, Discoidin domain-containing receptor 2 (Homo sapiens, UniProt Q16832).
T1 sequence (Q16832 whole entry): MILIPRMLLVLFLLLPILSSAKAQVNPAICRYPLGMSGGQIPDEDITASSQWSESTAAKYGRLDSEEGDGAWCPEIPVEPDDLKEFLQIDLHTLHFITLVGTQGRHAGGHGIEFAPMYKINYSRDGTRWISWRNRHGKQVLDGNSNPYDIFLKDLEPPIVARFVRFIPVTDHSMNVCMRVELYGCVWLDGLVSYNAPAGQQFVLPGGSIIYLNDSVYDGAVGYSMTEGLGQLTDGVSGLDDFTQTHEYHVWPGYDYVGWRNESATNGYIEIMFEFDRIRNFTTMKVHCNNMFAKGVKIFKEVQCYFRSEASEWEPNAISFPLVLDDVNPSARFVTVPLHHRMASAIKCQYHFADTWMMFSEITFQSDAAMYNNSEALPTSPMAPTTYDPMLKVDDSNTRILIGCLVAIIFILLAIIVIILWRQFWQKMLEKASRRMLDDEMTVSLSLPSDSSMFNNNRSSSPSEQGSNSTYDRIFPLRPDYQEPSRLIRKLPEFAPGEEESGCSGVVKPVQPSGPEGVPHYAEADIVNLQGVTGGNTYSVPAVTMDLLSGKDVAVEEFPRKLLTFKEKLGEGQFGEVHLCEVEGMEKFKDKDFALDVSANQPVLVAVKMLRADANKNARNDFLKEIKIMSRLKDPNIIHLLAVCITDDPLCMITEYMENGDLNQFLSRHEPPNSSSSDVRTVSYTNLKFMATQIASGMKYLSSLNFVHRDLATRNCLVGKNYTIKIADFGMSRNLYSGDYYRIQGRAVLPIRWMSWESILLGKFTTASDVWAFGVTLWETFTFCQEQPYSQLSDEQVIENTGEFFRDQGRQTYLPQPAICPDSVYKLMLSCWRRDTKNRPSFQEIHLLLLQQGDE

In experiment [3] the target is Protein kinase C delta type (Homo sapiens, UniProt Q05655).
Experiment [4] deals with T2, Dual specificity mitogen-activated protein kinase kinase 6 (Homo sapiens, UniProt P52564).
T2 sequence (P52564 whole entry): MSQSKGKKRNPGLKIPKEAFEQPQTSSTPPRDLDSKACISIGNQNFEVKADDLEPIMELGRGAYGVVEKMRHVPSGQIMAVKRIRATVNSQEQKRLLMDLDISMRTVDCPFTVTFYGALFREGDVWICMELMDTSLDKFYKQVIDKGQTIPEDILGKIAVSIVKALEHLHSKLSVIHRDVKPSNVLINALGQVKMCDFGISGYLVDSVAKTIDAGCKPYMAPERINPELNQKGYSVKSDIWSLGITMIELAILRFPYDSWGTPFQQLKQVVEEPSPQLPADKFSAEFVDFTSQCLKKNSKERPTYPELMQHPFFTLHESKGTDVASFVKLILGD

Experiment [5] addresses Receptor-interacting serine/threonine-protein kinase 3 (Homo sapiens, UniProt Q9Y572).
Experiment [6] addresses T3, Ephrin type-B receptor 4 (Homo sapiens, UniProt P54760).
T3 sequence (P54760 whole entry): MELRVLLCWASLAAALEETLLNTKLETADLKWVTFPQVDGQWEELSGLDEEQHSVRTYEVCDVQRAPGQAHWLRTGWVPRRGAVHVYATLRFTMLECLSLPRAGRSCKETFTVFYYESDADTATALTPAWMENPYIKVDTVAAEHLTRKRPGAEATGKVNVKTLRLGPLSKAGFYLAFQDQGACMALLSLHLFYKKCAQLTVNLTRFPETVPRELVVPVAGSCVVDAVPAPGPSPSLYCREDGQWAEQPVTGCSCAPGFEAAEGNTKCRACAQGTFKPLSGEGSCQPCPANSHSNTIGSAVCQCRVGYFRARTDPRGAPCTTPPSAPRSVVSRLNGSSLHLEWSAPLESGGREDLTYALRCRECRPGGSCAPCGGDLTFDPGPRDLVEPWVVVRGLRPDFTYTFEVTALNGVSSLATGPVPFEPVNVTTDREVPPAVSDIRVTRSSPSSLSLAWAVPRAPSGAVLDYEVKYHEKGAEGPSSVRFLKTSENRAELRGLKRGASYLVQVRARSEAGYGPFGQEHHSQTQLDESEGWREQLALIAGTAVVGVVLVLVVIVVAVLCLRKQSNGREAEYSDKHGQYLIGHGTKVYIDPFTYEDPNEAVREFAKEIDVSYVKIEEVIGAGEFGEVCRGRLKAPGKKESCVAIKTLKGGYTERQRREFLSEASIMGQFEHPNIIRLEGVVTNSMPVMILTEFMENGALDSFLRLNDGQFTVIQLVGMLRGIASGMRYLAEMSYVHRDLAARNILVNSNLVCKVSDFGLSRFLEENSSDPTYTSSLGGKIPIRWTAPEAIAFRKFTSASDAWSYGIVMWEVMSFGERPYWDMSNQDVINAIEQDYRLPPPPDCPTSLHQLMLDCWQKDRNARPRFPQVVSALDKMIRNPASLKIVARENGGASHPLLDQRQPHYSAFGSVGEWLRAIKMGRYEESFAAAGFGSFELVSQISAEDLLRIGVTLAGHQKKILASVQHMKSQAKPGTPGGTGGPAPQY

Experiment [7] deals with Serine/threonine-protein kinase/endoribonuclease IRE2 (Homo sapiens, UniProt Q76MJ5).
The target of experiment [8] is Tyrosine-protein kinase ABL2 (Homo sapiens, UniProt P42684).
The target of experiment [9] is T4, Ferrochelatase, mitochondrial (Homo sapiens, UniProt P22830).
T4 sequence (P22830 whole entry): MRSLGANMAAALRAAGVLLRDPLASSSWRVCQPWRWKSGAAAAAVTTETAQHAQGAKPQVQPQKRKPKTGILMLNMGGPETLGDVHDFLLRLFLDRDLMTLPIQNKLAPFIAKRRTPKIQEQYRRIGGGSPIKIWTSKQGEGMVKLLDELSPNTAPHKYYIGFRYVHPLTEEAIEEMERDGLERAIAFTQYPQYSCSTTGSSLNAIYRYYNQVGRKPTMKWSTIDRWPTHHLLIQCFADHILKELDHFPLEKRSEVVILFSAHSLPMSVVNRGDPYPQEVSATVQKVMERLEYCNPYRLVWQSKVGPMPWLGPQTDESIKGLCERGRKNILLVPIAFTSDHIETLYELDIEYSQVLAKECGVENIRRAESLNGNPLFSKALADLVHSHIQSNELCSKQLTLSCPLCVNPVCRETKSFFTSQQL

In experiment [10] the target is DNA topoisomerase 2-alpha (Homo sapiens, UniProt P11388).
Chain of DNA topoisomerase 2-alpha (P11388 whole entry): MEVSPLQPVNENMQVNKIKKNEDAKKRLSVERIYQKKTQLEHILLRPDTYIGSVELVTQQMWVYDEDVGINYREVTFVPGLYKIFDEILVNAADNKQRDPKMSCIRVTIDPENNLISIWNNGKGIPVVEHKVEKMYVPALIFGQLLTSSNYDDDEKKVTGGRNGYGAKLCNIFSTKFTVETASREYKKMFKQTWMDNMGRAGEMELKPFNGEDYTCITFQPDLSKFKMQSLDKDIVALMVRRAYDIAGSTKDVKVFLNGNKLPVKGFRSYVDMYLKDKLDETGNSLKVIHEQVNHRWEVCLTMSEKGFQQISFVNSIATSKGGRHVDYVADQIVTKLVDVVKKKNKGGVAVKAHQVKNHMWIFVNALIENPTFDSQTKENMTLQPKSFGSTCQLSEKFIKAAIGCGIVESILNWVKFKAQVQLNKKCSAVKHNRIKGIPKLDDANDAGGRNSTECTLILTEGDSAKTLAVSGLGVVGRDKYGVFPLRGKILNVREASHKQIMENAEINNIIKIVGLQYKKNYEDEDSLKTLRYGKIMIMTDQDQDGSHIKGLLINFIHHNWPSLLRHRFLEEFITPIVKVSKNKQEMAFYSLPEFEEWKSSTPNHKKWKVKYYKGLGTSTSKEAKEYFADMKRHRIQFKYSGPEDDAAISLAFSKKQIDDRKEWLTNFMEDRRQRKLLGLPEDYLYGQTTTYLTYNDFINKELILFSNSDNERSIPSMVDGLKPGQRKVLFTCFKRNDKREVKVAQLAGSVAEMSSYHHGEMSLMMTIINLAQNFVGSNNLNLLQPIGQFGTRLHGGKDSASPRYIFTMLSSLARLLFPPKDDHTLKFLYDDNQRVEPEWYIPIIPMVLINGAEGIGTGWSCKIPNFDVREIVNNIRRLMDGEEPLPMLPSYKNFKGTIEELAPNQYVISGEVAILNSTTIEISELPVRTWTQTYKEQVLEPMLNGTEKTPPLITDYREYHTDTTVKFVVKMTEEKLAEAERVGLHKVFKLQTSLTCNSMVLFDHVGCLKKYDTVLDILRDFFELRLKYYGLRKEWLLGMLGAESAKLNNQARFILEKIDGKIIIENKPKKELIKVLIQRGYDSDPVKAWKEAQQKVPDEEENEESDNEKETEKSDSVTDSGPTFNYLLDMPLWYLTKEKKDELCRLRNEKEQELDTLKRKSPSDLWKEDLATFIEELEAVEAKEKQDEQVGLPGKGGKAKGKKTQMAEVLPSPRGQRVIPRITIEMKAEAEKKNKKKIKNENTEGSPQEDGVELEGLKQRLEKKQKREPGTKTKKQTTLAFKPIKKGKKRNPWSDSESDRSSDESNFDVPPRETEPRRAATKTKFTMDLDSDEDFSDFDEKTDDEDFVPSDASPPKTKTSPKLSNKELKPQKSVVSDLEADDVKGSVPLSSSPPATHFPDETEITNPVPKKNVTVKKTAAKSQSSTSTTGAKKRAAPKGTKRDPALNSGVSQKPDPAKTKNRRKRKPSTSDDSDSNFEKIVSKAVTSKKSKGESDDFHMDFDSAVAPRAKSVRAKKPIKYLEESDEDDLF

Chain of Serine/threonine-protein kinase/endoribonuclease IRE2 (Q76MJ5 whole entry): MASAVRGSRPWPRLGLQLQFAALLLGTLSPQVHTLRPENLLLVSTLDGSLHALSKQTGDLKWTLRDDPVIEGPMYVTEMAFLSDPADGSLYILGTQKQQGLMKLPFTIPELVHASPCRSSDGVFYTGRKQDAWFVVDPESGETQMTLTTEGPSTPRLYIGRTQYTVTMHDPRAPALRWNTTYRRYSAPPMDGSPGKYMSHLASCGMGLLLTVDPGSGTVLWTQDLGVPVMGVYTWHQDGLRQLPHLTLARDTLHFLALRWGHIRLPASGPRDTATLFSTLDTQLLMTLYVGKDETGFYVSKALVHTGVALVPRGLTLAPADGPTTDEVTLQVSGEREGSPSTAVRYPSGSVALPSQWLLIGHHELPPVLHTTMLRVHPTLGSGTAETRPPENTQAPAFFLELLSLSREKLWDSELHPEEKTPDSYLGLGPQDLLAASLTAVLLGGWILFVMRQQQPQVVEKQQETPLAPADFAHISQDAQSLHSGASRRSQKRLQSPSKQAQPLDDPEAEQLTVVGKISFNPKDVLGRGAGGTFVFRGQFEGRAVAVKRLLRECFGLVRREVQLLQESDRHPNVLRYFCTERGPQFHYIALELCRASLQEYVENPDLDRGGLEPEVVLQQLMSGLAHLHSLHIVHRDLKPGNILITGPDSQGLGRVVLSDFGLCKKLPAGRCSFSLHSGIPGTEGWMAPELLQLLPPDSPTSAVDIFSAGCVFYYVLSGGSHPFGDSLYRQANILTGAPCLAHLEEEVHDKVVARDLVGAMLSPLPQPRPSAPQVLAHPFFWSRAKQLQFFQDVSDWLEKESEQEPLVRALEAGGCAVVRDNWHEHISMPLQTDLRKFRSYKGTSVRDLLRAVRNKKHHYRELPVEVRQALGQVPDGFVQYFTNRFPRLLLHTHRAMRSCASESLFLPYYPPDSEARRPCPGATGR
Chain of Tyrosine-protein kinase ABL2 (P42684 whole entry): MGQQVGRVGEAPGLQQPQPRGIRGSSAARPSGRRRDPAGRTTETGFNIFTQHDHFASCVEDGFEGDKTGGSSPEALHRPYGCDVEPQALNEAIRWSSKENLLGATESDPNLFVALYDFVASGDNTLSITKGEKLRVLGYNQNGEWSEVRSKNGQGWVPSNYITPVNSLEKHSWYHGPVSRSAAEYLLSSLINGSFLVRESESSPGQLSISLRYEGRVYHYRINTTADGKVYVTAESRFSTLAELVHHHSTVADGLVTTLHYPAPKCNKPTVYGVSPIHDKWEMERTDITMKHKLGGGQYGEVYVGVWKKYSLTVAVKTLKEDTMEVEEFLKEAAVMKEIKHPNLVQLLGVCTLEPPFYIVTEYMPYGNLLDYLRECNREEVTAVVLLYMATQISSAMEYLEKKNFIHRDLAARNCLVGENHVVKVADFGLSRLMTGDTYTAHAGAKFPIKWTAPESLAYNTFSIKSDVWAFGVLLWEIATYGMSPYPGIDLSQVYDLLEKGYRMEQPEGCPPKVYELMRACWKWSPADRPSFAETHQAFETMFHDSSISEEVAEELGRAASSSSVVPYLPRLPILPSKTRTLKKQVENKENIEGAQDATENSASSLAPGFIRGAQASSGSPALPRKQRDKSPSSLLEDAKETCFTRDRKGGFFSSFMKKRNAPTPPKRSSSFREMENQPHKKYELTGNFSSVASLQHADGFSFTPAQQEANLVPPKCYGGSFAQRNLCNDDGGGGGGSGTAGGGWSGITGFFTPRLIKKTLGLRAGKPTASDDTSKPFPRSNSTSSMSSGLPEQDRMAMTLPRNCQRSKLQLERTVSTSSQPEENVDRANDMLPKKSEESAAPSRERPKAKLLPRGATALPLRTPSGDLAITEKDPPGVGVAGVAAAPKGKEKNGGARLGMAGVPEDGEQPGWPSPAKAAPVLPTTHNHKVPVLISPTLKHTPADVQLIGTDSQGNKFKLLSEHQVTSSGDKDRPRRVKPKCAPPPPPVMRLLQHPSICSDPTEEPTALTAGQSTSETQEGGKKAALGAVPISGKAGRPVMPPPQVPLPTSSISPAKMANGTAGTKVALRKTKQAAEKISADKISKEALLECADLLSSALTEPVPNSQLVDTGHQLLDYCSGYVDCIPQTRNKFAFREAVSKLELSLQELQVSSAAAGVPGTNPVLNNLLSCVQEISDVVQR
Chain of Receptor-interacting serine/threonine-protein kinase 3 (Q9Y572 whole entry): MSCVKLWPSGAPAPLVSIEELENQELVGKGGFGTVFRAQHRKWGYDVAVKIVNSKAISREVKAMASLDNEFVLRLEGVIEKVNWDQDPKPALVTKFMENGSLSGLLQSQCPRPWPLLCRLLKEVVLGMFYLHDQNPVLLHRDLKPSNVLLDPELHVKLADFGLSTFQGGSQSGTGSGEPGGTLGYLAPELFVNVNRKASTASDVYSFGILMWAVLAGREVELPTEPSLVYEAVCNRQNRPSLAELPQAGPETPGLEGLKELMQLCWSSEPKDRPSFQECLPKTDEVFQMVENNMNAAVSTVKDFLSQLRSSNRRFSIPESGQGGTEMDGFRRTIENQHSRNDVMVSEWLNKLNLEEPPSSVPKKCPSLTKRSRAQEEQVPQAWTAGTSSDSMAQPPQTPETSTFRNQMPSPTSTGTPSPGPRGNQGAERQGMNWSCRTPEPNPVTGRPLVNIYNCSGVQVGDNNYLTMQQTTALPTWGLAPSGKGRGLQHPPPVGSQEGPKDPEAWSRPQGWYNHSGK
Chain of Protein kinase C delta type (Q05655 whole entry): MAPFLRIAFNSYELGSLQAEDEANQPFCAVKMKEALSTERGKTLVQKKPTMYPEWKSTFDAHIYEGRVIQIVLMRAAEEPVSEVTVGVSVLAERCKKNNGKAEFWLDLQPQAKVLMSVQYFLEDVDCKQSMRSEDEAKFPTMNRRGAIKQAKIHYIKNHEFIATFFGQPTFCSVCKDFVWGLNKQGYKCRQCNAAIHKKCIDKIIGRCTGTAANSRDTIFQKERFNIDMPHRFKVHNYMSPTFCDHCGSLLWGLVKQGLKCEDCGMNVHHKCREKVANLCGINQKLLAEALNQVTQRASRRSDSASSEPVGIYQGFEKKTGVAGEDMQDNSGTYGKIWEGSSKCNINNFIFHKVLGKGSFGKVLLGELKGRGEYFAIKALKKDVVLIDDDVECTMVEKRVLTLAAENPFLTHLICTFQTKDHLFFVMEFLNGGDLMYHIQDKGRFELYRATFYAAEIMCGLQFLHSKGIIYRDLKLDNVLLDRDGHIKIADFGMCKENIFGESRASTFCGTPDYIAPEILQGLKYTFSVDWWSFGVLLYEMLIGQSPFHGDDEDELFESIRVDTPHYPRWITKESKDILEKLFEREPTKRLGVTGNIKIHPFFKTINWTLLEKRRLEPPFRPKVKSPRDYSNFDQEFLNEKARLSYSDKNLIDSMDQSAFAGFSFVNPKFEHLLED

By Kd is commonly meant a measure of binding affinity in units of concentration. For the molecule `CNC(=O)CN1CCC(Oc2cc3c(Nc4cccc(Cl)c4F)ncnc3cc2OC)CC1` [SAPITINIB], the Kd is > 30 µM (inactive) in experiment [1]; > 30 µM (inactive) in experiment [2]; > 30 µM (inactive) in [3]; > 30 µM (inactive) in experiment [4]; 1.17 µM (active) in [5]; 0.556 µM (active) in experiment [6]. Further, the Kd in experiment [7], in experiment [8] and in [9] was > 30 µM (inactive) each time.

Consider `Cc1nc(N)sc1-c1ccnc(Nc2ccc(N3CCOCC3)cc2)n1` [CYC-116], for which the Kd in [2] was > 30 µM (inactive); in experiment [4], > 30 µM (inactive); in experiment [5], 4.82 µM (active); in experiment [6], 4.61 µM (active); in [7] it was > 30 µM (inactive); in experiment [10], > 30 µM (inactive). Further, the figures for the Kd in [8] and in [9] were > 30 µM (inactive) and 0.783 µM (active), respectively.

For the molecule `Cc1cc(Nc2cc(N3CCN(C)CC3)nc(/C=C/c3ccccc3)n2)n[nH]1` [ENMD-2076], the Kd in experiment [2] was 3.42 µM (active); in experiment [4], > 30 µM (inactive); in experiment [5] it was > 30 µM (inactive); in experiment [6], > 30 µM (inactive); in experiment [7], > 30 µM (inactive); in experiment [10] it was > 30 µM (inactive). The Kd in experiment [9] was > 30 µM (inactive).

For `Cc1ccc(NC(=O)c2ccc(CN3CC[C@H](N(C)C)C3)c(C(F)(F)F)c2)cc1Nc1nccc(-c2cncnc2)n1` [BAFETINIB], the Kd in experiment [1] is > 30 µM (inactive); in experiment [2] it was 0.048 µM (active); in experiment [3], > 30 µM (inactive); in experiment [4], > 30 µM (inactive); in experiment [5], 0.506 µM (active); in experiment [6] it was 1.3 µM (active). Further, the Kd in experiment [7] and in experiment [9] was > 30 µM (inactive) each time.

Consider `O=C(Nc1cccc(Cl)c1)Nc1ncc(CCNc2ncnc3ccsc23)s1` [SNS-314], for which the Kd in experiment [2] is 0.423 µM (active); in experiment [4], > 30 µM (inactive); in experiment [5] it was > 30 µM (inactive); in experiment [6] it was > 30 µM (inactive); in experiment [7], > 30 µM (inactive); in [10], > 30 µM (inactive). For the same molecule, the Kd in experiment [8] and in experiment [9] was > 30 µM (inactive) throughout.

For `Nc1nc(N)c2nc(-c3cccc(O)c3)c(-c3cccc(O)c3)nc2n1` [TG100-115], the Kd in experiment [5] was 3.67 µM; in experiment [7], > 30 µM (inactive); in experiment [10], > 30 µM (inactive); in [9], > 30 µM (inactive).

On to `CN1CCN(c2ccc3nc(-c4c(N)c5c(F)cccc5[nH]c4=O)[nH]c3c2)CC1` [DOVITINIB], for which the Kd in [5], in experiment [7] and in experiment [9] was > 30 µM (inactive) each time.

`CCc1cnn2c(NCc3ccc[n+]([O-])c3)cc(N3CCCC[C@H]3CCO)nc12` [DINACICLIB]: the Kd in experiment [2], in experiment [3], in experiment [4], in [5], in experiment [6] and in experiment [7] was > 30 µM (inactive) in each case. In addition, the Kd in [10], in [8] and in experiment [9] was > 30 µM (inactive) each time.

On to `OCCn1cc(-c2cnc3nnn(Cc4ccc5ncccc5c4)c3n2)cn1` [PF-04217903], for which the Kd in experiment [2], in experiment [3], in experiment [4], in experiment [5], in experiment [6] and in [7] was > 30 µM (inactive) in each case. For the same molecule, the Kd in experiment [10], in [8] and in experiment [9] was > 30 µM (inactive) each time.

`COC(=O)[C@@]1(O)C[C@H]2O[C@]1(C)n1c3ccccc3c3c4c(c5c6ccccc6n2c5c31)C(=O)NC4` [K-252A]: the Kd in experiment [2] is > 30 µM (inactive); in [5], > 30 µM (inactive); in experiment [6], > 30 µM (inactive); in [7] it was 0.908 µM (active); in experiment [10], > 30 µM (inactive); in experiment [8], > 30 µM (inactive). Also, in experiment [9], the Kd was > 30 µM (inactive).

Take `CCn1c(-c2nonc2N)nc2c(C#CC(C)(C)O)ncc(OC[C@H]3CCCNC3)c21` [GSK-690693]: the Kd in [5] is > 30 µM (inactive); in experiment [7] it was > 30 µM (inactive); in [10], > 30 µM (inactive); in experiment [9], 2.7 µM (active).

For the molecule `CN1CCC(COc2cnc(-c3cccc(Cn4nc(-c5cccc(C#N)c5)ccc4=O)c3)nc2)CC1` [TEPOTINIB], the Kd in experiment [2], in experiment [3], in experiment [4], in [5], in experiment [6] and in experiment [7] was > 30 µM (inactive) each time. In addition, the Kd in experiment [8] and in [9] was > 30 µM (inactive) throughout.

`COc1cc2nccc(Oc3ccc(NC(=O)NC4CC4)c(Cl)c3)c2cc1C(N)=O` [LENVATINIB]: the Kd in [2] was 0.218 µM (active); in [3], > 30 µM (inactive); in [4], > 30 µM (inactive); in experiment [5], 0.316 µM (active); in [6], > 30 µM (inactive); in experiment [7] it was > 30 µM (inactive). Also, the figures for the Kd in [10], in experiment [8] and in [9] were > 30 µM (inactive), > 30 µM (inactive) and 2.81 µM (active), respectively.

Consider `Cc1cn(-c2cc(NC(=O)c3ccc(C)c(Nc4nccc(-c5cccnc5)n4)c3)cc(C(F)(F)F)c2)cn1` [NILOTINIB], for which the figures for the Kd in experiment [5], in experiment [7] and in experiment [10] were 1.27 µM (active), > 30 µM (inactive) and > 30 µM (inactive), respectively.

Values taken from ChEMBL document CHEMBL3991601, “The target landscape of clinical kinase drugs” (Science, 2017).
